From PubChem BioAssay AID2198 (Vanderbilt High Throughput Screening Facility, 2009) come the findings set out here.

Activity calls are given as the source filed them.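 Rule for the calls: active = mean EC50 under 30 µM; inactive = the rest.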

The EC50 is the concentration needed to bring the measured effect to its halfway point.

Sequence of Muscarinic acetylcholine receptor M5 (Homo sapiens) (P08912 whole entry, looked up): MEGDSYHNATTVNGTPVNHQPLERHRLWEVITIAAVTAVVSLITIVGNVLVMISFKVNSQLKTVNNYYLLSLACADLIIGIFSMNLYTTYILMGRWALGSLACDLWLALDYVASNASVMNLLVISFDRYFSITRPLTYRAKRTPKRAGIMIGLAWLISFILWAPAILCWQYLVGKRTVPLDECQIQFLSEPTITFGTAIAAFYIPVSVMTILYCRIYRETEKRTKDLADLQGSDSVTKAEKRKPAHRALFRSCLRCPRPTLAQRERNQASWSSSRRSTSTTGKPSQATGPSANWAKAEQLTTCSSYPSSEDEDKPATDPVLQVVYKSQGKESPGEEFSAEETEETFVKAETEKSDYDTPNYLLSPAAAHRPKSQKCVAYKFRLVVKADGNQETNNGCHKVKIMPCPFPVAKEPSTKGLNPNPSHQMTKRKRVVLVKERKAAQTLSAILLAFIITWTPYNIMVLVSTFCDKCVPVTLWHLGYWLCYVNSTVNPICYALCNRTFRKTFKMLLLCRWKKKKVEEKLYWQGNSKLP

The assay concerns the target Muscarinic acetylcholine receptor M5 (Homo sapiens) (UniProt P08912). As to the kind of experiment: human M5 positive allosteric modulators, SAR follow-up, cell-based, calcium (AID 2198). The settings on record: CHO-K1 hM5, Fluo-4 calcium, ACh EC20 potentiation.
Regarding `O=C1C(=O)N(Cc2ccc(C(F)(F)F)cc2)c2ccc(OC(F)(F)F)cc21`, the EC50 was 1.85 µM.
As for `O=C1C(=O)N(Cc2ccccc2C(F)(F)F)c2c(F)cccc21`, the figure is > 30 µM (inactive); as for `COc1ccc(CN2C(=O)C(=O)c3cc(OC(F)(F)F)ccc32)cc1`, 1.16 µM.
Under `O=C1C(=O)N(Cc2ccccc2Cl)c2ccc(OC(F)(F)F)cc21` stands 4.07 µM.
As for `O=C1C(=O)N(Cc2ccc(Br)cc2F)c2ccc(OC(F)(F)F)cc21`, the figure is > 30 µM (inactive); as for `O=C1C(=O)N(Cc2ccc(Br)cc2)c2c(F)cccc21`, 1.93 µM; as for `COc1ccc(CN2C(=O)C(=O)c3ccccc32)cc1`, > 30 µM (inactive).
For the compound `COc1cccc(CN2C(=O)C(=O)c3cc(OC(F)(F)F)ccc32)c1`, the EC50 is 1.7 µM.
As for `O=C1C(=O)N(Cc2ccc(OC(F)(F)F)cc2)c2ccc(OC(F)(F)F)cc21`, the figure is 1.86 µM; as for `O=C1C(=O)N(Cc2ccc(C(F)(F)F)cc2)c2ccc(Cl)cc21`, 3.3 µM; as for `Cc1ccccc1CN1C(=O)C(=O)c2cc(OC(F)(F)F)ccc21`, 3.28 µM.
Turning to `O=C1C(=O)N(Cc2ccccc2C(F)(F)F)c2ccc(F)cc21`, the EC50 was > 30 µM (inactive).
For `COc1ccc(CN2C(=O)C(=O)c3cccc(Cl)c32)cc1`, the concentration giving a half-maximal response (EC50) is 3.96 µM.
As for `O=C1C(=O)N(Cc2ccc(C(F)(F)F)cc2)c2c(F)cccc21`, the figure is 3.26 µM.
Regarding `COc1cccc(CN2C(=O)C(=O)c3c(Cl)ccc(Cl)c32)c1`, the EC50 was 7.15 µM.
Under `O=C1C(=O)N(Cc2ccc(C(F)(F)F)cc2)c2ccccc21` stands 3.19 µM; under `O=C1C(=O)N(Cc2ccc(Br)cc2F)c2c(Cl)cccc21`, 4.66 µM.
